Here are results for 4 molecules from patent US11964000B2, “Cancer treatment methods using nanofiber stabilized growth factors” (Northwestern University, priority 2020, dated 2024).

For data set [1] the following is noted: Cy3-coupled PA, intracranial injection, compared with E2PA and MixPA.
Source text: (FIG. 6A) Intracranial distribution of glycosylated (GlncPA), E2 (E2PA) and glycosylated+E2 (MixPA) peptide amphiphiles coupled with Cy3.
Intracranial distribution of PAs administered directly into mouse brain, as well as the anti-tumor activity of direct intratumoral administration of PA-bound BMP4, was investigated.
In data set [2] the target is T1, BMP4 (Homo sapiens, UniProt P12644).
T1 sequence (P12644 293-408): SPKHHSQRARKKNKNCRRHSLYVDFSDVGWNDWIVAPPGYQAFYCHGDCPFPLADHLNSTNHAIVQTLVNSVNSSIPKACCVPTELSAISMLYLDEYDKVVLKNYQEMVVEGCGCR
The experiment in a line: ELISA of BMP4 half-life with peptide amphiphile nanostructures. Conditions: BMP4 with PA nanostructures. As for the experimental part: FIG. 3. […] (FIG. 3A) Molecular structure of GlncPA molecule (i.e. the glycosylated peptide amphiphile or “GPA”) and schematic of the self-assembled GlncPA nanofiber. The grey molecular region guides the self-assembly process into nanofibers, the blue molecular region contains the tri-sulfated monosaccharide responsible for protein binding actions. (FIG. 3B) SEM of GlncPA nanofiber bundles after exposure to blood proteins for 5 minutes. […] (Abbreviation: E2PA=filler PA=E2-PA, GlncPA=glycosylated PA=GPA)
The grey molecular region guides the self-assembly process into nanofibers, the blue molecular region contains the tri-sulfated monosaccharide responsible for protein binding actions.
A general note: An ELISA detects its analyte on a solid surface through an enzyme-linked reagent.

Data set [3] has as its system KNS42 cells. The experiment in a line: KNS42 cell viability in response to vincristine and vinblastine after BMP4 treatment. The class given is cell-based, human. An excerpt:
(§1) FIG. 2. BMP4 increases chemotherapeutic efficacy via reducing SETD1A and H3K4me3. (FIG. 2A) H3K4me3 levels in pediatric high-grade glioma cells in response to BMP4 (1 to 100/ng/ml). (FIG. 2B) SETD1A, SMAD1/5/8, MDR1, H3K4me3 levels in pediatric high-grade glioma-KNS42 cells and LCH-13-pGBM patient derived primary cultured cells. (FIG. 2C) KNS42 cell viability in response to vincristine (VCR) and vinblastine (VBL) with/without Dorsomorphine, a phosphoSMAD1/5/8 inhibitor. (FIG. 2D, FIG. 2E) KNS42 cell viability in response to VCR and VBL following down- or up-regulation of SETD1A via siSETD1A (D) or pET28-SETD1A and pET28-SETD1A with PSC833, a specific MDR1 inhibitor (E), respectively. (FIG. 2F) Protein immunoprecipitation with SMAD1/5/8, pSMAD1/5/8 antibodies from total protein extracts from BMP4 treated KNS42 cells using Biotin-streptavidin kit (Thermo Fisher) and detected with SETD1A, SMAD1/5/8, pSMAD1/5/8 using western blots.
(§2) This decreasing effect is reversed by Dorsomorphine, an inhibitor of pSMAD1/5/8 (FIG. 2C). In parallel, it was also tested and verified that SETD1A is associated with chemosensitivity in vitro in HGG cells (FIGS. 2D and E). […] Thus, it was hypothesized that BMP4 is altering gene expression through its effect on histone PTM. These findings prompted investigation of 1) in addition to H3K4me3, determining other histone PTMs that are affected subsequent to BMP4 treatment of tumor cells; and 2) other gene expression alterations that contribute to the heightened tumor cell response to cytotoxic therapy following BMP4 treatment.

Data set [4] has as its system pSMAD1/5/8. The experiment in a line: Western blot of pSMAD1/5/8 in HGG cells treated with PAs with and without BMP4. The format is cell-based, human. Conditions: PA 25 μM with BMP4 5 ng/ml, 24h and 72h; KNS42 and CHLA200 cells. An excerpt:
(§3) FIG. 5. Self-assembled peptide amphiphile nanostructures extend and enhance BMP4 effects in pediatric high grade glioma cells in vitro. (FIG. 5A) Western blots show PAs enhance BMP4 function by activating its downstream target pSMAD1/5/8 in pediatric glioma KNS42 (FIG. 5B) and CHLA200 cells. (FIG. 5C) Increased therapeutic efficacy in response to carboplatin treatment.
(§4) To investigate biological effects of PA-BMP4, HGG responses to different types of PAs, both with and without bound BMP4, were analyzed. HGG cells were treated with BMP4 (5 ng/ml), GlncPA (25 μM) and GlncPA (25 μM)-BMP4 (5 ng/ml), E2-PA (25 μM) and E2-PA (25 μM)-BMP4 (5 ng/ml) for 24h and 72h.
(In general: Immunoblotting shows a protein as a band on a membrane.)

In data set [5] the test system is HGG cells. The experiment in a line: HGG cell chemosensitivity (carboplatin) with PA-bound BMP4. The class given is cell-based, human. Conditions: PA 25 μM with BMP4 5 ng/ml; response to carboplatin treatment.
Source text: as §3, §4

Data set [6] relates to H3K4me3. The experiment in a line: H3K4me3 levels in pediatric high-grade glioma cells in response to BMP4. Conditions: BMP4 1 to 100 ng/ml. The format is cell-based, human.
Source text: as §1
This decreasing effect is reversed by Dorsomorphine, an inhibitor of pSMAD1/5/8 (FIG. 2C). In parallel, it was also tested and verified that SETD1A is associated with chemosensitivity in vitro in HGG cells (FIGS. 2D and E). […] Thus, it was hypothesized that BMP4 is altering gene expression through its effect on histone PTM. […]

Data set [7] deals with pSMAD1/5/8, SETD1A, MDR1. The experiment in a line: Western blot of SETD1A, SMAD1/5/8, MDR1 in KNS42 cells and LCH-13-pGBM primary cultured cells after BMP4. The class given is cell-based, human. Conditions: KNS42 and LCH-13-pGBM cells, BMP4 treatment.
Source text: as §1, §2

“Also recorded” adds a separate entry of the source. Residues, ends and D or L forms follow the SMILES beside them. Groups on a side chain read outwards from the residue. *: point of attachment. X1 = CC(=O)N[C@H]1[C@H](OCCn2cc(CCC(=O)*)nn2)O[C@H](COS(=O)(=O)O)[C@@H](OS(=O)(=O)O)[C@@H]1OS(=O)(=O)O; Palmitoyl = CCCCCCCCCCCCCCCC(=O)*; AEEA = NCCOCCOCC(=O)O

In the case of `CCCCCCCCCCCCCCCC(=O)N[C@H](C(=O)N[C@H](C(=O)N[C@@H](C)C(=O)N[C@@H](C)C(=O)N[C@@H](CCC(=O)O)C(=O)N[C@@H](CCC(=O)O)C(=O)N[C@@H](CCCCNC(=O)COCCOCCNC(=O)CCc1cn(CCO[C@@H]2O[C@H](COS(=O)(=O)O)[C@@H](OS(=O)(=O)O)[C@H](OS(=O)(=O)O)[C@H]2NC(C)=O)nn1)C(N)=O)C(C)C)C(C)C` [GlncPA] (Palmitoyl-VVAAEEK([AEEA-X1])-NH2), the intracranial distribution entry in data set [1] is reported as “greater distribution”. Also, in data set [2], the BMP4 half-life result is given as “markedly prolong the half-life of BMP4”.

With `c1cc(-c2cnn3cc(-c4ccc(OCCN5CCCCC5)cc4)cnc23)ccn1` [Dorsomorphine, reference compound], the “effect on BMP4-induced decrease of cell viability with VCR or VBL” value in data set [3] (Dorsomorphine, inhibitor of pSMAD1/5/8, added) is given as “reversed”.

Regarding `CCCCCCCCCCCCCCCC(=O)N[C@H](C(=O)N[C@H](C(=O)N[C@@H](C)C(=O)N[C@@H](C)C(=O)N[C@@H](CCC(=O)O)C(=O)N[C@@H](CCC(=O)O)C(N)=O)C(C)C)C(C)C` [E2-PA] (Palmitoyl-VVAAEE-NH2), the “BMP4 activity as phosphorylation of SMAD1/5/8” value in data set [4] is recorded as “enhance BMP4 activity”. Further, the BMP4 half-life entry in data set [2] is “extend BMP4 half-life”. In addition, the HGG cell chemosensitivity entry in data set [5] was “increased HGG cell chemosensitivity”.

B1: Bone morphogenetic protein 4 (protein)
chain: SPKHHSQRARKKNKNCRRHSLYVDFSDVGWNDWIVAPPGYQAFYCHGDCPFPLADHLNSTNHAIVQTLVNSVNSSIPKACCVPTELSAISMLYLDEYDKVVLKNYQEMVVEGCGCR
For the molecule B1, the H3K4me3 level result in data set [6] was “reduces H3K4me3; also recorded: significant decrease in H3K4me3”. In addition, in data set [3] (BMP4 for 48 hrs, then VBL 2 μg/ml, relative to VBL alone), the “cell viability with vinblastine (VBL)” value was “markedly decreased cell viability”. In data set [3] (BMP4 for 48 hrs, then VCR 1 μg/ml, relative to VCR alone), the “cell viability with vincristine (VCR)” value is “markedly decreased cell viability”. Further, in data set [7], the “expression of SETD1A” value was “decreasing expression of SETD1A”, the “expression of multidrug resistant gene 1 (MDR1)” value is recorded as “decreasing expression” and the “phosphorylation of SMAD1/5/8 (pSMAD1/5/8)” value is given as “increases phosphorylation of SMAD1/5/8”.
